Consider one compound from patent US11230542B2, “Inhibitors of integrated stress response pathway” (Praxis Biotech LLC, priority 2017, dated 2022).

Assay [1] relates to fasted Balb/c mice. The experiment in a line: Fasting-induced muscle atrophy. The assay is classed as in vivo, mouse. Particulars: 10 mg/kg oral. As for the experimental part:
Wild type eight-weeks-old male Balb/c mice obtained from the vivarium Fundacion Ciencia & Vida Chile (Santiago, Chile) were used. Mice were housed in independent plastic cages in a room maintained at 25° C. with a 12-h:12-h light:dark cycle.
Twenty-four hours before and during the 2 days of fasted procedures, animals received oral administration via feeding tubes (15 gauge) of vehicle (50% Polyethylene glycol 400 (Sigma-Aldrich P3265) in distilled water or 10 mg/kg of compound 3 formulated in vehicle solution.
After 2 days of fasting the animals were sacrificed and muscles were removed from both hindlimbs. Mice with feed and water ad libitum were used as control.
For in vivo measurements of protein synthesis, puromycin (Sigma-Aldrich, P8833) was prepared at 0.04 μmol/g body weight in a volume of 200 μL of PBS, and subsequently administered into the animals via IP injection, 30 min prior to muscle collection.
(§1) Upon collection, muscles were immediately frozen in liquid nitrogen and then stored at −80° C. […] Protein concentration in supernatants was determined using BCA Protein Assay Kit (Pierce). […]
(§2) Puromycin (12D10) (Merck Millipore) and β-actin (Sigma-Aldrich) antibodies were used as primary antibodies. […] Quantification of protein bands was done by densitometry using ImageJ software. […]

Assay [2] deals with Balb/c mice with immobilized hindlimb. The assay can be described thus: Immobilization-induced muscle atrophy. It counts as in vivo, mouse. Particulars: 10 mg/kg oral, 3 days immobilization. The protocol:
Wild type eight-weeks-old male Balb/c mice obtained from the vivarium Fundacion Ciencia & Vida Chile (Santiago, Chile) were used. Mice were housed in independent plastic cages, fed ad libitum in a room maintained at 25° C. with a 12-h:12-h light:dark cycle.
Twenty-four hours before and during the 3 days of immobilization procedures, animals received oral administration via feeding tubes (15 gauge) of vehicle (50% Polyethylene glycol 400 (Sigma-Aldrich P3265) in distilled water or 10 mg/kg of compound 3 formulated in vehicle.
One hindlimb was immobilized with a plastic stick placed over and under the limb and fixed with a medical adhesive bandage. Animals were daily monitored. The immobilization procedure prevented movement of the immobilized leg alone. After 3 days, the animals were sacrificed and gastrocnemius, quadriceps and tibialis anterior muscles were removed from both hindlimbs, the contralateral, non-immobilized leg being used as an internal control. […]
as §1, §2

Structures are written as SMILES.

With `O=C(COc1ccc(Cl)cc1)N[C@H]1CC[C@H](NC[C@@H](O)COc2ccc(Cl)cc2)CC1` (single isomer, unassigned) [Compound 3, (+)-2-(4-chlorophenoxy)-N-(4-((3-(4-chlorophenoxy)-2-hydroxypropyl)amino)cyclohexyl)acetamide], the “protein synthesis, puromycin staining in muscle fiber CSA” value in assay [1] is recorded as “partial recovery of protein synthesis”. Further, the “protein synthesis in immobilized hindlimb muscle” value in assay [2] (gastrocnemius) is on record as “partial recovery of protein synthesis”; in assay [2] (tibialis anterior and quadriceps), “complete recovery of protein synthesis”.
